Publication PMC7835894 (Molecules, 2021)

Experiments:
Caco-2 cells [1] = assay: Transwell cell invasion assay; assay type: cell-based, human; settings: IC50 concentration; for inhibition in Caco-2 cell invasion compared to control: 24 h; for percentage inhibition of Caco-2 cell invasion: 48 h
Procedure: Caco-2 cell invasion was assessed using a QCM™ 24-well Colorimetric Cell Invasion Assay kit (Chemicon International, Temecula, CA, USA (Cat # ECM551)), according to the manufacturer’s instructions. Cells were starved of serum for 24 h. […] Inserts were further added into a 24-well plate containing 500 µL of 10% FBS-containing DMEM per well. After incubation for 24 or 48 h at 37 °C, remaining media was removed from the invasion chamber, and cells that had migrated to the other side of the membrane were stained with “Cell Stain” solution for 20 min at room temperature. Non-invaded cells were carefully removed from the upper side of the chamber with the help of cotton-tipped swabs. The stain of invaded cells was then extracted by 200 µL of extraction buffer in a clean well for 15 min at room temperature. Finally, 100 µL extracted stained solution was transferred into a 96-well plate and the optical density was measured at 490 nm with BioTek 800 TS microplate reader.

Caco-2 cells [2] = assay: Total antioxidant capacity (TAC/TAO); assay type: cell-based, human; settings: Caco-2 cell lysate, IC50 concentration, 24 h; solvent control 32.6 ± 0.21
Procedure: Total antioxidant capacity was assayed spectrophotometrically using a Biodiagnostics® kit (Catalogue number TA 25 13, Biodiagnostics, Cairo, Egypt). […] The measurement of total antioxidants is based on treating the cell lysate with a known excess of H2O2 (50 µM). A certain amount of H2O2, equivalent to TAC, is eliminated leaving a residual amount of H2O2 that is quantified colorimetrically by the enzymatic conversion of 3, 5, dichloro-2-hydroxy benzene sulphonate to a colored product.

WI-38 = assay: MTT antiproliferation/cytotoxicity assay; assay type: cell-based, human; settings: for IC50: Homo sapiens, WI-38 normal cells, MTT, 24 h, mean ± SEM; for SI (selectivity index): WI-38, SI = IC50 (WI-38)/IC50 (cell line)
Procedure: (§1) The antiproliferation and cytotoxicity were assessed using 3-(4,5-dimethylthiazol-2-yl)-2,5-diphenyltetrazolium bromide (MTT, Serva) colorimetric assay. To investigate the antiproliferation, all cell lines were seeded at a density of 20,000 cells per well in 96-well plates and allowed to adhere overnight. […] These concentrations were prepared by diluting the stock solutions with serum-free culture media. The negative control cells were those treated with 0.1% DMSO solvent alone. The treated cells were handled in reduced light and maintained under standard culture growth conditions for 24 h. After the incubation period, MTT powder was prepared as a stock solution (5 mg/mL) and 20 μL of the MTT working reagent (final concentration 0.5 mg/mL) was added to each well. This was followed by incubation with MTT reagent for 4 h in a humidified atmosphere (37 °C, 5% CO2) with subsequent addition of 150 μL of DMSO solubilizing solvent and incubation for 20 min. The absorbance of solubilized violet formazan crystals was measured at 540 nm with Biotek 800 TS microplate reader. IC50 was calculated as the concentration of retinoid that produced 50% cell growth inhibition. For cytotoxicity assessment, WI-38 normal human fibroblast cells were used for the calculation of SI which is the ratio of IC50 retinoid (WI-38)/IC50 retinoid (cancer cell line).

Caco-2 cells [3] = assay: Intracellular and secreted glutamate assay; assay type: cell-based, human; settings: Caco-2, IC50 doses, 24 h
Procedure: The glutamate assay was performed using the Glutamate Assay Kit (Sigma-Aldrich, MAK004, St. Louis, MO, USA) according to the manufacturer’s protocol. […] Cells were lysed using 100 µL glutamate assay buffer and insoluble cell debris was then removed by centrifugation at 13,000× g for 10 min. The supernatant was transferred to a 10-KDa molecular weight cut-off (MWCO) spin filter (Sigma-Aldrich, St. Louis, MO, USA) to remove any particulates in the sample, and then was brought to a final volume of 50 µL with glutamate assay buffer and transferred to a 96-well plate. Finally, 100 µL of reaction mix was added to each well and the mixture was incubated for 30 min at 37 °C. The optical density was measured at 450 nm using BioTek 800 TS microplate reader (BioTek, Winooski, VT, USA). For the measurement of secreted glutamate, 50 μL samples of extracellular culture medium were placed in a 96-well plate and the kit’s enzymatic reaction mix was added to induce a glutamate-dependent color change. After 30 min incubation, the reaction products were read at the same wavelength. For determination of glutamate concentration (nmole/µL), a calibration curve was constructed using supplied 0.1 M glutamate standard with different dilutions (0 (blank), 2, 4, 6, 8 and 10 nmole per well). Glutamate concentration was measured according to the manufacturer’s instruction and as documented in earlier studies.

Caco-2 = assay: MTT antiproliferation assay; assay type: cell-based, human; settings: for IC50: Homo sapiens, Caco-2, MTT, 24 h, single agent, mean ± SEM; for SI (selectivity index): Caco-2, SI = IC50 (WI-38)/IC50 (cancer cell line)
Procedure: as §1

DU-145 = assay: MTT antiproliferation assay; assay type: cell-based, human; settings: for IC50: Homo sapiens, DU-145, MTT, 24 h, mean ± SEM; for SI (selectivity index): DU-145, SI = IC50 (WI-38)/IC50 (cancer cell line)
Procedure: as §1

A549 = assay: MTT antiproliferation assay; assay type: cell-based, human; settings: for IC50: Homo sapiens, A549, MTT, 24 h, mean ± SEM; for SI (selectivity index): A549, SI = IC50 (WI-38)/IC50 (cancer cell line)
Procedure: as §1

HCT-116 = assay: MTT antiproliferation assay; assay type: cell-based, human; settings: for IC50: Homo sapiens, HCT-116, MTT, 24 h, mean ± SEM; for SI (selectivity index): HCT-116, SI = IC50 (WI-38)/IC50 (cancer cell line)
Procedure: as §1

HepG2 = assay: MTT antiproliferation assay; assay type: cell-based, human; settings: for IC50: Homo sapiens, HepG2, MTT, 24 h, mean ± SEM; for SI (selectivity index): HepG2, SI = IC50 (WI-38)/IC50 (cancer cell line)
Procedure: as §1

MDA-MB 231 = assay: MTT antiproliferation assay; assay type: cell-based, human; settings: for IC50: Homo sapiens, MDA-MB 231, MTT, 24 h, mean ± SEM; for SI (selectivity index): MDA-MB 231, SI = IC50 (WI-38)/IC50 (cancer cell line)
Procedure: as §1

MCF-7 = assay: MTT antiproliferation assay; assay type: cell-based, human; settings: for IC50: Homo sapiens, MCF7, MCF-7, MTT, 24 h, mean ± SEM; for SI (selectivity index): MCF-7, SI = IC50 (WI-38)/IC50 (cancer cell line)
Procedure: as §1

PC3 = assay: MTT antiproliferation assay; assay type: cell-based, human; settings: for IC50: Homo sapiens, PC-3, PC3, MTT, 24 h, mean ± SEM; for SI (selectivity index): PC3, SI = IC50 (WI-38)/IC50 (cancer cell line)
Procedure: as §1

Huh7 = assay: MTT antiproliferation assay; assay type: cell-based, human; settings: for IC50: Homo sapiens, Huh-7, Huh7, MTT, 24 h, mean ± SEM; for SI (selectivity index): Huh7, SI = IC50 (WI-38)/IC50 (cancer cell line)
Procedure: as §1

Vero = assay: MTT antiproliferation/cytotoxicity assay; assay type: cell-based, African green monkey; settings: Chlorocebus sabaeus, Vero normal cells, 24 h, mean ± SEM
Procedure: as §1

Compound: CC1=C(/C=C/C(C)=C/C=C/C(C)=C/C(=O)O)C(C)(C)CCC1 [ATRA, All-trans retinoic acid, reference compound]
- inhibition in Caco-2 cell invasion compared to control (Caco-2 cells [1]): 3.8%
- percentage inhibition of Caco-2 cell invasion (Caco-2 cells [1]): 8.6%
- Total antioxidant activity (TAO) (Caco-2 cells [2]): 62.6 ± 0.15 µM/L
- IC50 (WI-38): 34 ± 1.1 µM
- released (extracellular) glutamate, magnitude of reduction (Caco-2 cells [3]): 24.1%
- IC50 (Caco-2): 58 ± 1 µM
- IC50 (DU-145): > 100 µM
- IC50 (A549): 84.7 ± 3.2 µM
- IC50 (HCT-116): > 100 µM
- IC50 (HepG2): 36.2 ± 1.9 µM
- IC50 (MDA-MB 231): > 100 µM
- IC50 (MCF-7): 99 ± 0.26 µM
- IC50 (PC3): > 100 µM
- IC50 (Huh7): > 100 µM
- IC50 (Vero): > 100 µM

Compound: CC1(C)CCC(C)(C)c2cc(C#Cc3cccc(C(=O)O)c3)ccc21 [EC19, 3-(5,5,8,8-tetramethyl-5,6,7,8-tetrahydronaphthalen-2-ylethynyl) benzoic acid]
- inhibition in Caco-2 cell invasion compared to control (Caco-2 cells [1]): 7.2%
- percentage inhibition of Caco-2 cell invasion (Caco-2 cells [1]): 17.2%
- Total antioxidant activity (TAO) (Caco-2 cells [2]): 22.6 ± 0.024 µM/L
- IC50 (WI-38): 48.4 ± 1.2 µM
- SI (selectivity index) (WI-38): 1
- released (extracellular) glutamate, magnitude of reduction (Caco-2 cells [3]): 1.4%
- SI (selectivity index) (Caco-2): 4.5 ± 0.01
- IC50 (Caco-2): 10.8 ± 0.1 µM
- SI (selectivity index) (DU-145): 0.56 ± 0.001
- IC50 (DU-145): 86.9 ± 2 µM
- SI (selectivity index) (A549): <1
- IC50 (A549): > 100 µM
- SI (selectivity index) (HCT-116): <1
- IC50 (HCT-116): > 100 µM
- SI (selectivity index) (HepG2): 1.2 ± 0.002
- IC50 (HepG2): 42.2 ± 0.92 µM
- IC50 (MDA-MB 231): > 100 µM
- SI (selectivity index) (MDA-MB 231): <1
- IC50 (MCF-7): 9.4 ± 0.13 µM
- SI (selectivity index) (MCF-7): 5.18 ± 0.1
- IC50 (PC3): > 100 µM
- SI (selectivity index) (PC3): <1
- IC50 (Huh7): > 100 µM
- SI (selectivity index) (Huh7): 0.14 ±0.01
- IC50 (Vero): > 100 µM

Compound: CC1(C)CCC(C)(C)c2cc(C#Cc3ccc(C(=O)O)cc3)ccc21 [EC23, 4-(5,5,8,8-tetramethyl-5,6,7,8-tetrahydronaphthalen-2-ylethynyl) benzoic acid]
- inhibition in Caco-2 cell invasion compared to control (Caco-2 cells [1]): 4.8%
- percentage inhibition of Caco-2 cell invasion (Caco-2 cells [1]): 15.8%
- Total antioxidant activity (TAO) (Caco-2 cells [2]): 22.6 ± 0.024 µM/L
- IC50 (WI-38): 8.01 ± 0.13 µM
- SI (selectivity index) (WI-38): 1
- released (extracellular) glutamate, magnitude of reduction (Caco-2 cells [3]): 5%
- SI (selectivity index) (Caco-2): 0.54 ±0.01
- IC50 (Caco-2): 14.7 ± 0.73 µM
- SI (selectivity index) (DU-145): <1
- IC50 (DU-145): > 100 µM
- SI (selectivity index) (A549): <1
- IC50 (A549): > 100 µM
- SI (selectivity index) (HCT-116): 0.18 ± 0.003
- IC50 (HCT-116): 44.5 ± 1.1 µM
- SI (selectivity index) (HepG2): 10.82 ± 1.0
- IC50 (HepG2): 0.74 ± 0.001 µM
- IC50 (MDA-MB 231): > 100 µM
- SI (selectivity index) (MDA-MB 231): <1
- IC50 (MCF-7): 5.56 ± 0.01 µM
- SI (selectivity index) (MCF-7): 1.44 ± 0.004
- IC50 (PC3): > 100 µM
- SI (selectivity index) (PC3): <1
- IC50 (Huh7): > 100 µM
- SI (selectivity index) (Huh7): 0.02 ± 0.001
- IC50 (Vero): 35.2 ± 1.02 µM
